The source made the active and inactive calls. The rule behind the calls is not given here.
Tested on: CCRIS mutagenicity, Ames/micronucleus/aberration tests
Assay: CCRIS mutagenicity studies
[1] = Test System: AMES SALMONELLA TYPHIMURIUM, Strain/Indicator: TA100, Metabolic Activation: NONE, Method: PREINCUBATION
[2] = Test System: AMES SALMONELLA TYPHIMURIUM, Strain/Indicator: TA100, Metabolic Activation: NONE, Method: STANDARD PLATE
[3] = Test System: AMES SALMONELLA TYPHIMURIUM, Strain/Indicator: TA1537, Metabolic Activation: NONE, Method: STANDARD PLATE

Q: What does the source list for `O=NN1CCC[C@H]1c1cccnc1`?
A: mutagenic call (Test System: AMES SALMONELLA TYPHIMURIUM, Strain/Indicator: TA98, Metabolic Activation: HAMSTER, LIVER, S-9, AROCLOR 1254, Method: STANDARD PLATE): inactive; negative; mutagenic call (Test System: AMES SALMONELLA TYPHIMURIUM, Strain/Indicator: TA98, Metabolic Activation: NONE, Method: STANDARD PLATE): inactive; negative; mutagenic call (Test System: AMES SALMONELLA TYPHIMURIUM, Strain/Indicator: TA98, Metabolic Activation: RAT, LIVER, S-9, AROCLOR 1254, Method: STANDARD PLATE): inactive; negative; mutagenic call (Test System: AMES SALMONELLA TYPHIMURIUM, Strain/Indicator: TA100, Metabolic Activation: HAMSTER, LIVER, S-9, AROCLOR 1254, Method: STANDARD PLATE): inactive; negative; mutagenic call [1]: active; positive; mutagenic call [2]: inactive; negative; mutagenic call (Test System: AMES SALMONELLA TYPHIMURIUM, Strain/Indicator: TA100, Metabolic Activation: RABBIT, LUNG, CLARA CELLS, Method: PREINCUBATION): inactive; negative; mutagenic call (Test System: AMES SALMONELLA TYPHIMURIUM, Strain/Indicator: TA100, Metabolic Activation: RABBIT, LUNG, MACROPHAGES, Method: PREINCUBATION): inactive; negative; mutagenic call (Test System: AMES SALMONELLA TYPHIMURIUM, Strain/Indicator: TA100, Metabolic Activation: RABBIT, LUNG, S-9, Method: PREINCUBATION): active; positive; mutagenic call (Test System: AMES SALMONELLA TYPHIMURIUM, Strain/Indicator: TA100, Metabolic Activation: RABBIT, LUNG, TYPE II CELLS, Method: PREINCUBATION): inactive; negative; mutagenic call (Test System: AMES SALMONELLA TYPHIMURIUM, Strain/Indicator: TA100, Metabolic Activation: RAT LIVER S-9, AROCLOR 1254, Method: PREINCUBATION): inactive; negative; mutagenic call (Test System: AMES SALMONELLA TYPHIMURIUM, Strain/Indicator: TA1530, Metabolic Activation: RABBIT, LUNG, CLARA CELLS, Method: PREINCUBATION): inactive; negative; mutagenic call (Test System: AMES SALMONELLA TYPHIMURIUM, Strain/Indicator: TA1530, Metabolic Activation: RABBIT, LUNG, MACROPHAGES, Method: PREINCUBATION): inactive; negative; mutagenic call (Test System: AMES SALMONELLA TYPHIMURIUM, Strain/Indicator: TA1530, Metabolic Activation: RABBIT, LUNG, S-9, Method: PREINCUBATION): active; positive; mutagenic call (Test System: AMES SALMONELLA TYPHIMURIUM, Strain/Indicator: TA1530, Metabolic Activation: RABBIT, LUNG, TYPE II CELLS, Method: PREINCUBATION): inactive; negative; mutagenic call (Test System: AMES SALMONELLA TYPHIMURIUM, Strain/Indicator: TA1535, Metabolic Activation: HAMSTER, LIVER, S-9, AROCLOR 1254, Method: STANDARD PLATE): active; positive; mutagenic call (Test System: AMES SALMONELLA TYPHIMURIUM, Strain/Indicator: TA1535, Metabolic Activation: NONE, Method: STANDARD PLATE): inactive; negative; mutagenic call (Test System: AMES SALMONELLA TYPHIMURIUM, Strain/Indicator: TA1535, Metabolic Activation: RAT, LIVER, S-9, AROCLOR 1254, Method: STANDARD PLATE): inactive; negative; mutagenic call (Test System: AMES SALMONELLA TYPHIMURIUM, Strain/Indicator: TA1537, Metabolic Activation: HAMSTER, LIVER, S-9, AROCLOR 1254, Method: STANDARD PLATE): inactive; negative; mutagenic call [3]: inactive; negative; mutagenic call (Test System: AMES SALMONELLA TYPHIMURIUM, Strain/Indicator: TA1537, Metabolic Activation: RAT, LIVER, S-9, AROCLOR 1254, Method: STANDARD PLATE): inactive; negative; mutagenic call (Test System: AMES SALMONELLA TYPHIMURIUM, Strain/Indicator: TA1538, Metabolic Activation: HAMSTER, LIVER, S-9, AROCLOR 1254, Method: STANDARD PLATE): inactive; negative; mutagenic call (Test System: AMES SALMONELLA TYPHIMURIUM, Strain/Indicator: TA1538, Metabolic Activation: NONE, Method: STANDARD PLATE): inactive; negative; mutagenic call (Test System: AMES SALMONELLA TYPHIMURIUM, Strain/Indicator: TA1538, Metabolic Activation: RAT, LIVER, S-9, AROCLOR 1254, Method: STANDARD PLATE): inactive; negative; mutagenic call (Test System: AMES SALMONELLA TYPHIMURIUM, Strain/Indicator: TA7004, Metabolic Activation: HAMSTER LIVER S-9, AROCLOR 1254, Method: PREINCUBATION): inactive; negative; mutagenic call (Test System: AMES SALMONELLA TYPHIMURIUM, Strain/Indicator: TA7004, Metabolic Activation: NONE, Method: PREINCUBATION): active; positive; mutagenic call (Test System: AMES SALMONELLA TYPHIMURIUM, Strain/Indicator: TA7004, Metabolic Activation: RAT LIVER S-9, AROCLOR 1254, Method: PREINCUBATION): inactive; negative; mutagenic call (Test System: CHINESE HAMSTER V-79, Strain/Indicator: V-79 (HPRT)/6-THIOGUANINE, Metabolic Activation: RAT, HEPATOCYTES): inactive; negative; mutagenic call (Test System: CHINESE HAMSTER V-79, Strain/Indicator: V-79 (HPRT)/6-THIOGUANINE, Metabolic Activation: RAT, LIVER, S-9, AROCLOR 1254): inactive; negative; mutagenic call (Test System: UDS RABBIT LUNG CLARA CELLS, Strain/Indicator: THY INCORP, Metabolic Activation: NONE, Method: LIQUID SCINTILLATION COUNTING): inactive; negative; mutagenic call (Test System: UDS RABBIT LUNG MACROPHAGES, Strain/Indicator: THY INCORP, Metabolic Activation: NONE, Method: LIQUID SCINTILLATION COUNTING): inactive; negative; mutagenic call (Test System: UDS RABBIT LUNG TYPE II CELLS, Strain/Indicator: THY INCORP, Metabolic Activation: NONE, Method: LIQUID SCINTILLATION COUNTING): inactive; negative; mutagenic call (Test System: UDS RODENT HEPATOCYTES, Strain/Indicator: THY INCORP (NON-S-PHASE), Method: AUTORADIOGRAPHY): active; positive

Q: `CN(C)C` was tested. Which mutagenic call (Test System: AMES SALMONELLA TYPHIMURIUM, Strain/Indicator: TA98, Metabolic Activation: HAMSTER, LIVER, S-9, AROCLOR 1254 (10%), Method: PREINCUBATION) did it give?
A: inactive; negative

Q: What about the mutagenic call (Test System: AMES SALMONELLA TYPHIMURIUM, Strain/Indicator: TA98, Metabolic Activation: NONE, Method: PREINCUBATION) of the same compound?
A: inactive; negative

Q: And the mutagenic call (Test System: AMES SALMONELLA TYPHIMURIUM, Strain/Indicator: TA98, Metabolic Activation: RAT, LIVER, S-9, AROCLOR 1254 (10%), Method: PREINCUBATION)?
A: inactive; negative

Q: And the mutagenic call (Test System: AMES SALMONELLA TYPHIMURIUM, Strain/Indicator: TA100, Metabolic Activation: HAMSTER, LIVER, S-9, AROCLOR 1254 (10%), Method: PREINCUBATION)?
A: inactive; negative

Q: And the mutagenic call [1]?
A: inactive; negative

Q: What about the mutagenic call (Test System: AMES SALMONELLA TYPHIMURIUM, Strain/Indicator: TA100, Metabolic Activation: RAT, LIVER, S-9, AROCLOR 1254 (10%), Method: PREINCUBATION) of the same compound?
A: inactive; negative

Q: What about the mutagenic call (Test System: AMES SALMONELLA TYPHIMURIUM, Strain/Indicator: TA1535, Metabolic Activation: HAMSTER, LIVER, S-9, AROCLOR 1254 (10%), Method: PREINCUBATION) of the same compound?
A: inactive; negative

Q: What about the mutagenic call (Test System: AMES SALMONELLA TYPHIMURIUM, Strain/Indicator: TA1535, Metabolic Activation: NONE, Method: PREINCUBATION) of the same compound?
A: inactive; negative

Q: And the mutagenic call (Test System: AMES SALMONELLA TYPHIMURIUM, Strain/Indicator: TA1535, Metabolic Activation: RAT, LIVER, S-9, AROCLOR 1254 (10%), Method: PREINCUBATION)?
A: inactive; negative

Q: What about the mutagenic call (Test System: AMES SALMONELLA TYPHIMURIUM, Strain/Indicator: TA1537, Metabolic Activation: HAMSTER, LIVER, S-9, AROCLOR 1254 (10%), Method: PREINCUBATION) of the same compound?
A: inactive; negative

Q: And the mutagenic call (Test System: AMES SALMONELLA TYPHIMURIUM, Strain/Indicator: TA1537, Metabolic Activation: NONE, Method: PREINCUBATION)?
A: inactive; negative

Q: What about the mutagenic call (Test System: AMES SALMONELLA TYPHIMURIUM, Strain/Indicator: TA1537, Metabolic Activation: RAT, LIVER, S-9, AROCLOR 1254 (10%), Method: PREINCUBATION) of the same compound?
A: inactive; negative

Q: How did the mutagenic call (Test System: Mouse lymphoma, Strain/Indicator: L5178Y (tk+/tk-), Metabolic Activation: Rat, Liver, S-9, Aroclor 1254, Method: Suspension/plate) turn out when `COc1cc2c(cc1O)CC[C@@H]1[C@@H]2CC[C@]2(C)[C@@H](O)CC[C@@H]12` was run?
A: active; equivocal (previous evaluation positive)

Q: With `CCCCCCNC(=O)n1cc(F)c(=O)[nH]c1=O` as the compound, how does the mutagenic call (Test System: AMES SALMONELLA TYPHIMURIUM, Strain/Indicator: TA98, Metabolic Activation: S-9, Method: STANDARD PLATE) read?
A: inactive; negative

Q: What about the mutagenic call [2] of the same compound?
A: inactive; negative

Q: What about the mutagenic call (Test System: AMES SALMONELLA TYPHIMURIUM, Strain/Indicator: TA100, Metabolic Activation: S-9, Method: STANDARD PLATE) of the same compound?
A: inactive; negative

Q: What about the mutagenic call (Test System: AMES SALMONELLA TYPHIMURIUM, Strain/Indicator: TA102, Metabolic Activation: NONE, Method: STANDARD PLATE) of the same compound?
A: inactive; negative

Q: And the mutagenic call [3]?
A: inactive; negative

Q: And the mutagenic call (Test System: AMES SALMONELLA TYPHIMURIUM, Strain/Indicator: TA1537, Metabolic Activation: S-9, Method: STANDARD PLATE)?
A: inactive; negative

Q: And the mutagenic call (Test System: E. COLI, Strain/Indicator: WP2 (HCR), Metabolic Activation: NONE, Method: STANDARD PLATE)?
A: inactive; negative

Q: And the mutagenic call (Test System: E. COLI, Strain/Indicator: WP2 (HCR), Metabolic Activation: S-9, Method: STANDARD PLATE)?
A: inactive; negative

Q: With `O=[N+]([O-])O.O=[N+]([O-])O.[Cd+2]` as the compound, how does the mutagenic call (Test System: E. COLI, Strain/Indicator: DG1153, Metabolic Activation: NONE, Method: FLUCTUATION TEST) read?
A: active; positive

Reference: PubChem BioAssay AID1259407 (Chemical Carcinogenesis Research Information System (CCRIS), 2018)
